For 2 compounds, melting point results are on record in patent US6503899B2, “Azepino[4,5-b]pyrano[3,2-e]indoles” (Pharmacia & Upjohn Company, priority 2000, dated 2003).

For the compound `CC1(C)CCc2c(ccc3[nH]c4c(c23)CCNCC4)O1.Cl`, the melting point (commonly the temperature of the solid-liquid transition) was > 258 °C (dec.).

For the compound `Cl.Cn1c2c(c3c4c(ccc31)OCCC4)CCNCC2`, the melting point is > 217 °C (dec.).
